No end group written: not given here.
Legend:
platelets = experiment: Activation of platelets by thrombin; assay type: cell-based
thromboplastin [1] = molecular target: T1, thromboplastin (Homo sapiens, UniProt P13726); experiment: Time-course inhibition of thromboplastin procoagulant activity (one-stage prothrombin time and two-stage amidolytic assay); assay type: biochemical; conditions: 500 nM, thromboplastin 100 nM (10 U/ml), 37° C.
T1 construct: purchased Gamidor Ltd. (Oxfordshire, U.K.)
Experimental: The one stage prothrombin time assay was carried out by the addition of 100 μl of the sample to 100 μl of 25 mM CaCl2 solution and incubation prior to addition of 100 μl of control plasma. The clotting time was measured on the coagulometer. The two-stage amidolytic assay was carried according to published procedures. In all cases the thromboplastin activity was calculated from a standard curve prepared previously and the percentage inhibition was calculated as 100×[…].
The apolipoprotein B-100 control peptide (fragment 3358-3372) containing the sequence TRLTRKRGLKLATAL was reconstituted in distilled water to 1 mM. The freeze-dried samples were reconstituted in distilled water to a concentration of 1 mM. Two 200 μl samples of thromboplastin (10 U/ml) were incubated with 500 nM KRAD-14 or apolipoprotein B-100 control peptide at 37° C. for 45 min. Another set of 200 μl samples of thromboplastin (10 U/ml) were incubated with either 500 nM KRAD-98 or the chloramphenicol acetyltransferase control protein. […] Following the incubation the thromboplastin activity in all the samples was measured by means of the one-stage prothrombin time assay and the two-stage amidolytic assay and the percentage inhibition calculated against the control containing distilled water.
The above experiments were repeated using 1 ml samples containing recombinant thromboplastin (10 U/ml) mixed with either 500 nM KRAD-14, 500 nM KRAD-98 or 500 nM apolipoprotein B-100, reconstituted as described before. The concentrations used are equivalent to that of apolipoprotein B-100 in normal plasma. 100 μl of the each sample was removed immediately and assayed for thromboplastin activity, by means of the one-stage prothrombin time assay. The rest of the samples were incubated at 37° C. and further 100 μl samples were removed at intervals up to 120 min and measured as before. The percentage inhibition was calculated against a control sample of thromboplastin.
Three 1 ml samples containing recombinant thromboplastin (10 U/ml) were mixed with 500 nM KRAD-14 (solid square), 500 nM KRAD-98 (open square) or 500 nM apolipoprotein […] (triangle), reconstituted as described before. The concentrations used are equivalent to that of apolipoprotein B-100 in normal plasma. 100 μl of the each sample was removed immediately and assayed for thromboplastin activity, by means of the one-stage prothrombin time assay. The rest of the samples were incubated at 37° C. and further 100 μl samples were removed at intervals up to 120 min and measured as before. The thromboplastin activity was calculated from a standard curve prepared previously and the percentage inhibition was calculated as 100×[…]. The curves are typical of data from four sets of experiments.

thrombin = thrombin (Homo sapiens, UniProt P00734); experiment: Influence on thrombin activity (amidolytic and clotting); assay type: biochemical; conditions: 500 nM peptide, thrombin 100 nM
Experimental: Samples (1 ml) of either KRAD-14 peptide (500 nM) or each of the control peptides (500 nM) were incubated with thrombin (100 nM) at 37° C. and the thrombin activity measured at the beginning and at intervals up to 60 min as follows. The enzymatic activity of thrombin was measured by the addition of 100 μl aliquots to 0.45 ml of thrombin substrate (N-benzoyl-phe-val-arg-p-nitroanilide) (0.26 mM) which was then incubated at 37° C. for exactly 10 min, before the addition of 0.45 ml of 20% (w/v) acetic acid. The absorption was measured at 405 nm against a thrombin (100 nM) control assayed similarly. The procoagulant activity of thrombin was measured by the addition of 100 μl of the sample to control plasma (100 μl) and 25 mM CaCl2 solution and measuring the clotting time. A thrombin 100 nM) control was included in the assay against which comparisons were made.

thromboplastin [2] = molecular target: T1, thromboplastin; experiment: Effect of KRAD-14 concentration on thromboplastin inhibition (one-stage prothrombin time assay); assay type: biochemical
Experimental: The synthetic KRAD-14 peptide was reconstituted in distilled water at 1 mM. Aliquots of recombinant thromboplastin were incubated, at 37° C. with a KRAD-14 at concentration range 10-5000 nM (final concentration) for 1 min prior to assaying using the one-stage prothrombin time assay. In addition, samples of thromboplastin (10 U/ml) were incubated with synthetic KRAD-14 at concentrations ranging from 1-100 μM (final concentration) prior to assaying using the one-stage prothrombin time assay.
Aliquots of recombinant thromboplastin were incubated, at 37° C. with a KRAD-14 at concentration range 10-5000 nM (final concentration) for 1 min prior to assaying using the one-stage prothrombin time assay. The percentage inhibition was calculated as 100×([…])/Initial activity. The experiment was performed in triplicate.
Samples of thromboplastin (10 U/ml) were incubated with synthetic KRAD-14 concentration ranging 1-100 μM (final concentration) prior to assaying using the one-stage prothrombin time assay. The percentage inhibition was calculated as 100×([…])/Initial activity. The experiment was performed in triplicate.
Aliquots (1 ml) of recombinant thromboplastin (100 nM) were incubated at 37° C. with a KRAD-14 peptide at concentration range 50 (♦), 100 (▾), 200 (▪), 300 (⋄) and 500 nM (□) (final concentration). 100 μl of the each sample was removed immediately and assayed for thromboplastin activity, by means of the one-stage prothrombin time assay. The rest of the samples were incubated at 37° C. and further 100 μl samples were removed at intervals up to 40 min and measured. The percentage inhibition was calculated as 100×(Initial activity-Residual activity)/Initial activity. The data were obtained from 3 separate experiments.

[3] = molecular target: T2, thromboplastin, reconstituted in phosphatidylcholine (Homo sapiens, UniProt P13726); experiment: Inhibition of delipidated thromboplastin reconstituted in phosphatidylcholine; assay type: biochemical; conditions: 500 nM sample, 37° C., 30 min
T2 construct: purchased Gamidor Ltd. (Oxfordshire, U.K.)
T2 sequence (P13726 33-295): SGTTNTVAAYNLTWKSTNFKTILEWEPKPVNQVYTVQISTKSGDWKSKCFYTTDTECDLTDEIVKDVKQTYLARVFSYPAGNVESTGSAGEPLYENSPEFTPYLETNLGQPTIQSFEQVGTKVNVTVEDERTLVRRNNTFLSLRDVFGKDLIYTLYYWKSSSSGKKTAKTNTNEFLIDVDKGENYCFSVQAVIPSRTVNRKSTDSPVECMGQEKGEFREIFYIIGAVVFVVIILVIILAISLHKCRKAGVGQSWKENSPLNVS
Experimental: In other experiments, recombinant thromboplastin (1 mg/ml) was delipidated with chloroform/methanol as described previously, to remove phosphatidylserine and other lipids and reconstituted with phosphatidylcholine (1 mg/ml) to differentiate between the effects of the prepared samples on the protein moiety of thromboplastin and any effects on the thromboplastin-associated phosphatidylserine. […] The percentage inhibition was calculated against the control sample.
Recombinant thromboplastin was delipidated to remove phosphatidylserine and other lipids and reconstituted at 1 mg/ml with phosphatidylcholine (1 mg/ml). […] The % Inhibition was calculated against the control. The data were obtained from 3 separate experiments.

T1 sequence (P13726 33-295): as above

inhibition at 0.5 µM (thromboplastin [1]; 2 min incubation): 90%
inhibition at 0.5 µM (thromboplastin [1]; 4 min incubation (maximum)): 98%
effect on the amidolytic proteolytic activity of thrombin (thrombin): did not affect
effect on the clotting ability of thrombin (thrombin): did not affect
lowest concentration effective in inhibiting thromboplastin (thromboplastin [2]; 1 min preincubation at 37° C.): 50 nM
Kd (thromboplastin [2]; thromboplastin 100 nM, KRAD-14 peptide 1-5000 nM, 1 min at 37° C., read-out: Kdapp, inhibition of thromboplastin): 37 nM
inhibition at 0.5 µM ([3]; against distilled water control): > 99%
% Inhibition ([3]; against distilled water control, listed as Recombinant KRAD-14 peptide): 99%
Procoagulant Activity ([3]; distilled water control 4.70 U/ml): (0.05 U/ml)
Sequence: KAQSKKNKHRHSTT [KRAD-14]
effect on the activation of platelets by thrombin (platelets): seems to affect the activation of platelets by thrombin
inhibition of thromboplastin compared with the recombinant peptide (in words) (thromboplastin [2]; synthetic peptide): inhibitory towards thromboplastin with similar effectiveness as the recombinant peptide

Reference: patent US6444644B1, “Anticoagulant peptide fragments derived from apolipoprotein B-100” (University College London, priority 1996, dated 2002)
